Experiments:
[1] = Formation of scar tissue at the trauma site; assay type: in vivo
From the text: It is believed that these mixed agonists interfere with triple helix formation in the synthesis of collagen protein, thus preventing or reducing the formation of hard scar tissue at the trauma site.
The purpose of liquid nitrogen is to reduce the structural integrity of the collagen laden, glial scar tissue, by freezing and defrosting. Collagenase then initiates a debridgement of the scar without attacking the nervous and osseous tissue. If required, streptokinase, or alteplase, both plasminogen activators can also be used to bring about a complete debridgement. In addition to 3-amino-propionitrile (a latherogen), 5-fluorodeoxyuridine and dehydroproline can be used to arrest further glial and fibroblastic invasion of the scar region, respectively.

[2] = Anesthesia in rats judged by reflexes and wakefulness; conditions: for anesthesia judged by reflexes (patellar, urethro-anal, startle, corneal etc.) after 30 minutes: room temperature 21° C., G 12 mg/kg, D 6 mg/kg or combination; for anesthesia judged by reflexes (patellar, urethro-anal, startle, corneal etc.) after 30 minutes / reflexes tested (as in Examples 48–53) / appearance of ears and digits of anesthetized animals / survival at the given doses: I.P.; for reflexes tested (as in Examples 48–53): room temperature 19.4° C.; for reflexes tested (as in Examples 48–53) / appearance of ears and digits of anesthetized animals: guanabenz acetate 12 mg/kg; for reflexes tested (as in Examples 48–53) / appearance of ears and digits of anesthetized animals / survival at the given doses: pentabarbital 25 mg/kg, ketamine 80 mg/kg
[3] = for core temperature allowed to fall to: 4 mg intraperitoneally, ambient 21° C., before transfer to 42° C. room (guanabenz: after about 15 minutes); for core temperature twenty minutes after injection: room temperature 21° C., G 12 mg/kg, D 6 mg/kg or combination; for core temperature twenty minutes after injection / mean core temperature one hour after injection: I.P.; for mean core temperature one hour after injection: room temperature 19.4° C., guanabenz acetate 12 mg/kg, pentabarbital 25 mg/kg, ketamine 80 mg/kg
Procedure: Room temperature was 21.5° C.
The core temperatures of the rats were allowed to fall to approximately 30° C., after about 15 minutes. At that time, the rats were placed in a temperature controlled room maintained at 42° C., together with 2 control rats treated only with the dextrose solution.
The core temperatures of the rats were allowed to fall to approximately 30° C. At that time, the rats were placed in a temperature controlled room maintained at 42° C., together with two control rats treated only with the dextrose solution.

[4] = Core temperature and behaviour of treated rats in a room at 42° C.; assay type: in vivo, rat; conditions: 4 mg intraperitoneally; for core temperature in the 42° C. room: placed at core temperature about 30° C.
[5] = Activities and properties of the compounds (Table III codes listed as Specific Properties in Table IV); conditions: codes of Table III; higher levels of activity
From the text: Certain of the compounds produce a profound hypothermia, but without anesthetizing. […] Table III, following, sets forth a list of the other properties of these guanidino compounds, which arise from their alpha-adrenergic agonist activity, combined with any inherent activity of the reactants chosen to achieve the final compound.
Except for items numbered 22 and 24–28 in Table III, substantially all of the guanidino compounds of this invention, as a result of their structure-activity relationship, are potent with respect to all of the above activities. However, as would be expected, various compounds have different, higher levels of, activities and properties which are listed as “Specific Properties”, with the Compounds numbered, in Table IV, below, according to the numbers in Tables I and II.

[6] = Reversal of guanabenz-induced anesthesia and hypothermia by antagonists; assay type: in vivo, rat
Procedure: The effect can also be partially reversed, or reversed in stages, if desired, by administering several smaller aliquots of the antagonist.
Room temperature was 21.5° C. […] The control rats, injected only with the carrier dextrose solution, maintained a relatively constant temperature during the entire test period under identical conditions of the test.

[7] = Electrical tail stimulation, vocalization threshold (anesthesia) in rats; assay type: in vivo, rat; conditions: guanabenz-anesthetized rats, 40 mgs. aminophylline
Procedure: A fifth rat was treated with merely an equal amount of the dextrose solution without guanabenz acetate. The rats were subjected to an electrical tail stimulation, by electrodes attached to their tails, to determine the point of positive (threshold) vocalization.
The normal vocalization threshold, and the point at which the control rat vocalized was approximately 7 volts. […] To bring the rats out of anesthesia, the rats were then injected with 40 mgs. of aminophylline, also in 1 ml of a 5% aqueous dextrose solution. […] The normal threshold for vocalization was reestablished, as there was no vocalization at 6 volts following recovery from anesthesia.
The rats were maintained under anaesthesia for a period of 50 minutes before injection of the aminophylline.

[8] = Intravenous anesthesia of a 70 kg mammal; assay type: in vivo; conditions: 70 kg mammal, 20 mg aminophylline intravenous over five minutes
Procedure: Thereafter, an intravenous injection containing 20 mg of aminophylline is administered over a period of five minutes. The large mammal is fully awakened within about 20 minutes, appearing alert and refreshed.
The period of time required to fully reverse the anesthesia can be increased or decreased by proportionally changing the amount of the antagonist. After metabolism of guanabenz, the mammal will spontaneously awaken, within about three to six hours after the I.V. drip is discontinued.

[9] = 4 mg I.P., room temperature 21.5° C.
[10] = guanabenz-treated rats (4 mg I.P.), Yohimbine 10 mg I.P.

Compound: N=C(N)NN [Aminoguanidine]
- effect on formation of the scar [1]: interfere with formation of the scar

Compound: COc1cc(C=NNc2ncc[nH]2)cc(OC)c1OC [Compound 13, Melazine]
- anesthetic state of the treated rats [2, 9]: remained awake
- mean intraperitoneal temperature [3, 9]: 30.2 °C
- temperatures of the liver and the kidneys [3, 9]: ~32.7 °C
- core temperature (colonic measurement) after drop ([3]; eight rats each, 4 mg I.P. in 5% dextrose, room temperature 21.5° C., normal value 36.5° C.): 21.5 °C

Compound: Clc1cccc(Cl)c1C=Nc1nc(N=Cc2c(Cl)cccc2Cl)nc(N=Cc2c(Cl)cccc2Cl)n1 [Compound 18, 2,4,6-Tris (2,6-dichlorobenzylideneamino)-1,3,5-s-Triazine]
- core temperature allowed to fall to [3]: approximately 30 °C
- state of treated rats in the 42° C. room [4]: remained calm, but active
- core temperature in the 42° C. room [4]: 30 °C

Compound: Cn1c(=O)c2c(ncn2CC(=O)NC(=O)c2ccc(C(=N)N)cc2)n(C)c1=O [Compound 97, 4-(Amidino)-N-(theophylline-7-acetyl)-benzamide]
- Specific Properties [5]: 3, 2, 2, antagonist, 12
- antagonism of both the hypothermic and anesthetic effects of guanidino compounds ([6]; rat, in vivo): reverse both the hypothermic and anesthetic effects

Compound: Cn1c(=O)c2[nH]cnc2n(C)c1=O [aminophylline]
- voltage at which vocalization was present ([7]; by 8 minutes after injection): 7 volts
- voltage at which vocalization returned ([7]; within 6 minutes after injection): 12 volts
- time until fully awakened from guanabenz anesthesia [8]: ≤ 20 min
- effect on guanabenz-induced anesthesia [6, 10]: caused them to awaken
- effect on guanabenz-induced hypothermia (body temperature) [6, 10]: practically no effect on body temperature
- effect of injection on melazine-treated rats ([6]; three melazine-treated rats): no discernible effect

Compound: Clc1cccc(Cl)c1N=C1NCCN1 [clonidine]
- effect on formation of the scar [1]: interfere with formation of the scar

Compound: CN1C(=O)CN=C(c2ccccc2)c2cc(Cl)ccc21 [diazepam]
- anesthesia judged by reflexes (patellar, urethro-anal, startle, corneal etc.) after 30 minutes [2]: all such reflexes were present
- core temperature twenty minutes after injection [3]: no change

Compound: N=C(N)N/N=C/c1c(Cl)cccc1Cl [guanabenz acetate]
- reflexes tested (as in Examples 48–53) [2]: disappeared
- anesthesia judged by reflexes (patellar, urethro-anal, startle, corneal etc.) after 30 minutes [2]: profound anesthesia
- core temperature allowed to fall to [3]: approximately 30 °C
- mean core temperature one hour after injection [3]: 24.3 °C
- core temperature twenty minutes after injection [3]: about 31 °C
- state of treated rats in the 42° C. room [4]: remained under anesthesia
- core temperature in the 42° C. room [4]: 30 °C

Compound: CNC1(c2ccccc2Cl)CCCCC1=O (stereo not shown) [ketamine]
- appearance of ears and digits of anesthetized animals [2]: semi-cyanotic
- survival at the given doses [2]: did not survive
- reflexes tested (as in Examples 48–53) [2]: disappeared
- mean core temperature one hour after injection [3]: 34.5 °C

Compound: CCCC(C)C1(CC)C(=O)NC(=O)NC1=O (stereo not shown) [pentabarbital]
- appearance of ears and digits of anesthetized animals [2]: semi-cyanotic
- survival at the given doses [2]: did not survive
- reflexes tested (as in Examples 48–53) [2]: disappeared
- mean core temperature one hour after injection [3]: 29.3 °C

Reference: US7109329B2, “Neurologically active compounds and compounds with multiple activities” (priority 1988, dated 2006)
